Results on one compound are retold here after patent US10336707B2, “Heterocyclic derivatives modulating activity of certain protein kinases” (EUDENDRON S.R.L., priority 2014, dated 2019).

For assay [1], the target named is T1, BaF3 cell line transfected with the oncogenic fusion protein NPM-ALK and expressing the mutation L1196M (Homo sapiens, UniProt Q9UM73, L1196M, cells depend on it).
T1 construct: fused on or other part: P06748 (Nucleophosmin)
The assay can be described thus: Tritiated thymidine uptake cell proliferation assay, BaF3 NPM-ALK L1196M. It counts as cell-based, murine.

The target in assay [2] is T2, BaF3 NPM-ALK C1156Y (Homo sapiens, UniProt Q9UM73, C1156Y, cells depend on it).
T2 construct: fused on or other part: P06748 (Nucleophosmin)
The experiment in a line: Tritiated thymidine uptake cell proliferation assay, BaF3 NPM-ALK C1156Y. It counts as cell-based, murine. The settings on record: cell line BaF3 NPM-ALK C1156Y; read-out: IC50 of cellular proliferation, BaF3 NPM-ALK C1156Y. As to the method: Method: Tritiated Thymidine Uptake Cell Proliferation Assay
The following procedure was used with parent untransformed BaF3 cells, BaF3 cells transformed with the oncogenic fusion protein NPM/ALK, NPM/ALK positive SUDHL-1 cells, NPM/ALK positive SUPM2, ALK-negative HL60 cells, NPM/ALK positive KARPAS-299 cells. The parent untransformed BaF3 cells or Alk-negative HL60 cells are used as controls. Cells were seeded in U-bottomed 96-well plates at 10000 cells/well in a volume of 100 μl in supplemented medium. In the case of the parent untransformed BaF3 cells, the medium was supplemented with IL-3. Serial dilutions of inhibitors were added to the appropriate wells and volumes adjusted to 200 μl. Controls were treated with the equivalent volume of vehicle, DMSO, alone. Plates were incubated at 37° C. for 72 h. 3[H]-thymidine (1 μCi/well) was added for the last 16 h of incubation. Cells were harvested on to paper filters and 3[H]-thymidine incorporation was measured using a scintillation counter (1430 MicroBeta, Wallac, Turku, Finland). The 50% inhibitory concentration (IC50) was defined as the concentration of inhibitor, expressed in nanomolar units, that gave a 50% decrease in 3[H]-thymidine uptake compared with controls.
In Table 4 are reported the IC50 of cellular proliferation assays of example 3 versus ALK positive, mutated and negative cell lines.

Like-named read-outs stand apart in the source and are kept apart here.

T1 sequence (Q9UM73 whole entry L1196M, the tested form may be a part): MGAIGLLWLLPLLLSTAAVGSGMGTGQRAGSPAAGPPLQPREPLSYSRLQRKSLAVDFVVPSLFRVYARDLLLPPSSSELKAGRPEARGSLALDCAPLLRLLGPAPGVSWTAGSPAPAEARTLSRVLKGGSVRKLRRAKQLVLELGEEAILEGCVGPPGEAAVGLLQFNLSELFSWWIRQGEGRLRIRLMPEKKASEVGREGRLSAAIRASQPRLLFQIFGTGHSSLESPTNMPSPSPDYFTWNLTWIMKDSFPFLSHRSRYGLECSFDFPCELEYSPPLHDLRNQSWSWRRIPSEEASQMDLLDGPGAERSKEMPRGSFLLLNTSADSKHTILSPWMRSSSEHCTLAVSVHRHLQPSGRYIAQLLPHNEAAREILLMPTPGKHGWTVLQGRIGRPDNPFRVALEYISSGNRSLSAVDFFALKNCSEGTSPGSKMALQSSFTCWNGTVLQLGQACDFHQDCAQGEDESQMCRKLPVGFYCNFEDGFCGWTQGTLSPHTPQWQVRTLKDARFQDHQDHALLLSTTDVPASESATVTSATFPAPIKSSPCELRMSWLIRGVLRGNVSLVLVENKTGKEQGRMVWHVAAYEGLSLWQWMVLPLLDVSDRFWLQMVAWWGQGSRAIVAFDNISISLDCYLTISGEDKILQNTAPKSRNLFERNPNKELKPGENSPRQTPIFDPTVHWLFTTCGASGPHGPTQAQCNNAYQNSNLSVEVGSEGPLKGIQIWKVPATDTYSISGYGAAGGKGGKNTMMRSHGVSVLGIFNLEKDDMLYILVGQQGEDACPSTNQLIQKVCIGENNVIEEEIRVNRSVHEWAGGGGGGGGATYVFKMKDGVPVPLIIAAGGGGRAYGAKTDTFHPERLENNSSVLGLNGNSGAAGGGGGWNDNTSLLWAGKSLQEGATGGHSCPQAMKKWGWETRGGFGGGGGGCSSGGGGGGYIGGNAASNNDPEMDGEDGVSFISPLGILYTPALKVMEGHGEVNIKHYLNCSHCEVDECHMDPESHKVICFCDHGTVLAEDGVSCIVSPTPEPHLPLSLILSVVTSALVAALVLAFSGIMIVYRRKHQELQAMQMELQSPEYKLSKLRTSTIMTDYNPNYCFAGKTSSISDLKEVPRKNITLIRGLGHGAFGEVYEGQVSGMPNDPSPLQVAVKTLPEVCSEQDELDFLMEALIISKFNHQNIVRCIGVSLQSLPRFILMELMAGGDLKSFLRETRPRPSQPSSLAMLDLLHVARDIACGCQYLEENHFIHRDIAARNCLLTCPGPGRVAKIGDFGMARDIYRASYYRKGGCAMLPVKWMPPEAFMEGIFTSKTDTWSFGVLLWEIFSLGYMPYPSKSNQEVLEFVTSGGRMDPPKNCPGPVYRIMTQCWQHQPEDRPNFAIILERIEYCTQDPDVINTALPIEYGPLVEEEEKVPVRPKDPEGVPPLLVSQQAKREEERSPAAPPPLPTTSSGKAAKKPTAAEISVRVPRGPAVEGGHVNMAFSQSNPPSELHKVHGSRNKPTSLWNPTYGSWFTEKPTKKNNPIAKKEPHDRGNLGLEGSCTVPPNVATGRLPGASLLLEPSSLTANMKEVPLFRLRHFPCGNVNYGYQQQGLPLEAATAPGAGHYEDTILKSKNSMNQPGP
T2 sequence (Q9UM73 whole entry C1156Y, the tested form may be a part): as the sequence (Q9UM73 whole entry L1196M, the tested form may be a part) above, with C1156Y, M1196L counted along it

Regarding `CN1CCN(c2ccc(C(=O)Nc3n[nH]c4cc(-c5ccc(O)cc5)c(Cc5cc(F)cc(F)c5)cc34)c(NC3CCOCC3)c2)CC1` [Example 3, N-[5-[(3,5-difluorophenyl)methyl]-6-(4-hydroxyphenyl)-1H-indazol-3-yl]-4-(4-methylpiperazin-1-yl)-2-(tetrahydropyran-4-ylamino)benzamide], the GI50 in assay [1] (averaged IC50 values of cell proliferation inhibition, class letters, read-out: IC50 BaF3 NPM-ALK L1196M cells) is 1 to 50 nM; in assay [1] (cell line BaF3 NPM-ALK L1196M, read-out: IC50 of cellular proliferation, BaF3 NPM-ALK L1196M), 6 nM; in assay [2], 34 nM. In addition, the “% Inhibition BaF3 NPM-ALK L1196M cells” value in assay [1] (percentage of inhibition of cell proliferation at 200 nM) is given as 83%.
